Experimental data: patent US20240315993A1, “ANTIPARASITIC COMPOUNDS” (Intervet Inc., priority 2021, published 2024)

Key:
[1] = tested on: Mobile stages of sea lice (pre-adults, adults of Lepeophtheirus salmonis); test: Adult sea lice contact assay; conditions: pre-adults/adults, assessed after ~1 and 24 h, read-out: EC50 (sea lice inhibition, dead+damaged)
Description: Mobile stages of sea lice (i.e., pre-adults, adults of Lepeophtheirus salmonis) were exposed to seawater spiked with declining concentrations of a test compound (dissolved in a PEG sea-water mixture). Sea lice inhibition (% of dead+damaged sea lice) was assessed after approximately 1 and 24 hours of continuous exposure in comparison to a negative (solvent) control group.

[2] = tested on: bed bugs (Cimex lectularius); test: Guinea pig - efficacy against bed bug; type: in vivo; conditions: Day 0
Description: (§1) Guinea pigs were locally co-infested (using an infestation device on a shaved skin area) with juvenile soft ticks (Ornithodoros moubata) and bed bugs (Cimex lectularius) before the treatment day (Day 0) to provide a baseline-negative control value. Guinea pigs were treated orally (by gavage) or subcutaneously at a dose of 5 mg/kg bodyweight of a test compound in a formulation of 10% DMF/Emulsifier+90% Aqua ad injectabilia.
(§2) Repeated local infestations with both parasites were performed at different time points after treatment. Within approximately 45 min after each infestation ten engorged ticks and ten engorged bed bugs were • collected and the percentage of dead and damaged parasites per species were • assessed approximately 24 hours following collection. The efficacy was • calculated as % of inhibition ‘killed+damaged’ parasites in a treated group in comparison to the baseline-negative control (using a modified Schneider Orelli's formula).
(§3) Results: Activity of the test compounds at different evaluation time-points (≥80% inhibition were found active): […]

[3] = tested on: juvenile soft ticks (Ornithodoros moubata); test: Guinea pig - efficacy against argaside tick; type: in vivo
Description: as §1, §2, §3

[4] = tested on: Copepodids (juvenile sea lice stage of Lepeophtheirus salmonis); test: Juvenile sea lice contact assay; conditions: ~24 h
Description: Copepodids (juvenile sea lice stage of Lepeophtheirus salmonis) were exposed to seawater spiked with declining concentrations of a test compound (dissolved in a DMSO sea-water mixture). Sea lice inhibition (% of dead+damaged copepodids) was assessed after approximately 24 hours of continuous exposure. The vitality of used parasites was confirmed in a negative (solvent) control group.

Lepeophtheirus salmonis = test: Salmon - in vivo efficacy against sea lice using gavage administration; conditions: 5 mg/kg once by gavage; for therapeutic efficacy against juvenile sea lice (% reduction vs control): day -3 infestation; for therapeutic efficacy against juvenile sea lice (% reduction vs control) / prophylactic efficacy at re-infestation on Day 17 (% reduction vs control): counted around day 28; for therapeutic efficacy against (pre-)adult sea lice (% reduction vs control): day -28 infestation, counted day 7
Description: Salmon (Salmo solar) were treated once orally by gavage at a dose of 5 mg/kg bodyweight per fish (Day 0). As formulation DMSO 5%/fish oil 95% was used. Salmon of the negative control group received only the excipients of the formulation.
The fish were infested with Lepeophtheirus salmonis copepodids twice before treatment (i.e., around day −28 and day −3) and once after treatment (i.e., day 17).
Around day 28 (end of animal phase), fish were euthanized, and lice on each fish were classified ((pre-)adult or juvenile stage) and counted. […] Efficacy is expressed as a % reduction of sea lice in treated groups versus a control group, using the Abbott's formula.

[5] = tested on: Yellow Fever Mosquito (Aedes aegypti); conditions: 96-well plate, cited from earlier work; for Test C: Bioassay on Yellow Fever Mosquito, mortality rating: Aedes aegypti larvae about 1 day old, scored after 3 days; for Test C: mortality of Yellow Fever Mosquito larvae, rating: about 1 day-old larvae, graded after 3 days at room temperature
[6] = tested on: Beet Armyworm (Spodoptera exigua); conditions: 128-well diet tray, average of eight wells, cited from earlier work; for Test A: Bioassay on BAW, percent mortality rating: Beet Armyworm second instar larvae, 50 μg/cm^2, five to seven days; for Test A: percent mortality of Beet Armyworm (BAW) larvae, rating: 50 μg/cm^2 on artificial diet, second instar larvae, 5-7 days
[7] = tested on: Cabbage Looper (Trichoplusia ni); conditions: 128-well diet tray, average of eight wells, cited from earlier work; for Test B: Bioassay on CL, percent mortality rating: Cabbage Looper second instar larvae, 50 μg/cm^2, five to seven days; for Test B: percent mortality of Cabbage Looper (CL) larvae, rating: 50 μg/cm^2 on artificial diet, second instar larvae, 5-7 days

Cc1cc(NC(=O)c2cc(NC(=O)[C@H]3[C@H](c4cc(Cl)cc(Cl)c4)C3(Cl)Cl)ccc2Cl)ncc1F [Compound 454]
EC50 [1]: ≤ 10 nM
activity against bed bugs (≥80% inhibition, killed+damaged) ([2]; 5 mg/kg oral): immediate activity
activity against bed bugs (≥80% inhibition, killed+damaged) ([2]; 5 mg/kg subcutaneous): immediate activity
activity against tick nymphs (≥80% inhibition, killed+damaged) ([3]; 5 mg/kg oral, Day 0): immediate activity
activity against tick nymphs (≥80% inhibition, killed+damaged) ([3]; 5 mg/kg subcutaneous, Day 0): immediate activity
activity against tick nymphs (≥80% inhibition, killed+damaged) ([3]; 5 mg/kg subcutaneous, after 7 days): activity
activity against tick nymphs (≥80% inhibition, killed+damaged) ([3]; 5 mg/kg subcutaneous, after 10 days): activity
duration of efficacy, subcutaneous compared with oral administration ([3]; 5 mg/kg, ticks and bed bugs): longer duration of efficacy
inhibition at 0.1 µM ([4]; Lepeophtheirus salmonis, 100 nM in seawater, read-out: Sea lice inhibition (% of dead+damaged copepodids)): 100%

Cc1c(F)cc(NC(=O)C2C(c3cc(Cl)cc(Cl)c3)C2(Cl)Cl)cc1C(=O)Nc1ncc(F)cc1F (centres unmarked) [Compound 457]
therapeutic efficacy against juvenile sea lice (% reduction vs control) (Lepeophtheirus salmonis): 100%
therapeutic efficacy against (pre-)adult sea lice (% reduction vs control) (Lepeophtheirus salmonis): 80%

O=C(Nc1c(F)cccc1F)c1cc(NC(=O)C2C(c3cc(Cl)cc(Cl)c3)C2(Cl)Cl)ccc1Cl (centres unmarked) [Compound 458]
prophylactic efficacy at re-infestation on Day 17 (% reduction vs control) (Lepeophtheirus salmonis): 80%
therapeutic efficacy against juvenile sea lice (% reduction vs control) (Lepeophtheirus salmonis): 100%
therapeutic efficacy against (pre-)adult sea lice (% reduction vs control) (Lepeophtheirus salmonis): 100%

O=C(Nc1ncc(F)cc1F)c1cc(NC(=O)C2C(c3cc(Cl)cc(Cl)c3)C2(Cl)Cl)ccc1F (centres unmarked) [Compound 463]
therapeutic efficacy against juvenile sea lice (% reduction vs control) (Lepeophtheirus salmonis): 100%
therapeutic efficacy against (pre-)adult sea lice (% reduction vs control) (Lepeophtheirus salmonis): 100%
Sea lice inhibition (% of dead+damaged copepodids) ([4]; 1 nM in seawater): 100%

O=C(Nc1ncc(F)cc1F)c1cc(NC(=O)C2C(c3cc(Cl)cc(Cl)c3)C2(Cl)Cl)cc(F)c1Cl (centres unmarked) [Compound 464]
prophylactic efficacy at re-infestation on Day 17 (% reduction vs control) (Lepeophtheirus salmonis): 100%
therapeutic efficacy against juvenile sea lice (% reduction vs control) (Lepeophtheirus salmonis): 100%
therapeutic efficacy against (pre-)adult sea lice (% reduction vs control) (Lepeophtheirus salmonis): 100%

O=C(Nc1ncc(F)cc1F)c1cc(NC(=O)C2C(c3cc(F)c(F)c(F)c3)C2(Cl)Cl)ccc1Cl (centres unmarked) [Compound 478]
therapeutic efficacy against juvenile sea lice (% reduction vs control) (Lepeophtheirus salmonis): 80%
therapeutic efficacy against (pre-)adult sea lice (% reduction vs control) (Lepeophtheirus salmonis): 100%

O=C(Nc1ncc(F)cc1F)c1cc(NC(=O)C2C(c3cc(F)c(F)c(F)c3)C2(Cl)Cl)ccc1F (centres unmarked) [Compound 479]
therapeutic efficacy against juvenile sea lice (% reduction vs control) (Lepeophtheirus salmonis): 80%
therapeutic efficacy against (pre-)adult sea lice (% reduction vs control) (Lepeophtheirus salmonis): 100%

O=C(Nc1ncc(F)cc1F)c1c(F)ccc(NC(=O)C2C(c3cc(Cl)cc(Cl)c3)C2(Cl)Cl)c1F (centres unmarked) [Compound 480]
therapeutic efficacy against juvenile sea lice (% reduction vs control) (Lepeophtheirus salmonis): 100%
therapeutic efficacy against (pre-)adult sea lice (% reduction vs control) (Lepeophtheirus salmonis): 100%

O=C(Nc1cncc([N+](=O)[O-])c1)c1cc(NC(=O)C2C(c3cc(Cl)cc(Cl)c3)C2(Cl)Cl)ccc1Cl (centres unmarked) [c106]
Test C: Bioassay on Yellow Fever Mosquito, mortality rating [5]: A (80-100)
Test A: Bioassay on BAW, percent mortality rating [6]: A (50-100)
Test B: Bioassay on CL, percent mortality rating [7]: A (50-100)

O=C(Nc1cncc([N+](=O)[O-])c1)c1cc(NC(=O)C2C(c3ccc(Cl)c(Cl)c3)C2(Cl)Cl)ccc1Cl (centres unmarked) [c107]
Test C: Bioassay on Yellow Fever Mosquito, mortality rating [5]: A (80-100)
Test A: Bioassay on BAW, percent mortality rating [6]: A (50-100)
Test B: Bioassay on CL, percent mortality rating [7]: A (50-100)

O=C(Nc1cncc(NO)c1)c1cc(NC(=O)C2C(c3cc(Cl)cc(Cl)c3)C2(Cl)Cl)ccc1Cl (centres unmarked) [c108]
Test C: Bioassay on Yellow Fever Mosquito, mortality rating [5]: A (80-100)
Test A: Bioassay on BAW, percent mortality rating [6]: A (50-100)
Test B: Bioassay on CL, percent mortality rating [7]: A (50-100)

Nc1cncc(NC(=O)c2cc(NC(=O)C3C(c4cc(Cl)cc(Cl)c4)C3(Cl)Cl)ccc2Cl)c1 (centres unmarked) [c109]
Test C: Bioassay on Yellow Fever Mosquito, mortality rating [5]: A (80-100)
Test A: Bioassay on BAW, percent mortality rating [6]: A (50-100)
Test B: Bioassay on CL, percent mortality rating [7]: A (50-100)

O=C(Nc1cncc(NO)c1)c1cc(NC(=O)C2C(c3ccc(Cl)c(Cl)c3)C2(Cl)Cl)ccc1Cl (centres unmarked) [c110]
Test C: Bioassay on Yellow Fever Mosquito, mortality rating [5]: A (80-100)
Test A: Bioassay on BAW, percent mortality rating [6]: A (50-100)
Test B: Bioassay on CL, percent mortality rating [7]: A (50-100)

Nc1cncc(NC(=O)c2cc(NC(=O)C3C(c4ccc(Cl)c(Cl)c4)C3(Cl)Cl)ccc2Cl)c1 (centres unmarked) [c111]
Test C: Bioassay on Yellow Fever Mosquito, mortality rating [5]: A (80-100)
Test A: Bioassay on BAW, percent mortality rating [6]: A (50-100)
Test B: Bioassay on CL, percent mortality rating [7]: A (50-100)

Cn1ccc2c(NC(=O)c3cc(NC(=O)C4C(c5cc(Cl)cc(Cl)c5)C4(Cl)Cl)ccc3Cl)cccc21 (centres unmarked) [c112]
Test C: Bioassay on Yellow Fever Mosquito, mortality rating [5]: A (80-100)
Test A: Bioassay on BAW, percent mortality rating [6]: A (50-100)
Test B: Bioassay on CL, percent mortality rating [7]: A (50-100)

Cn1ccc2cccc(NC(=O)c3cc(NC(=O)C4C(c5cc(Cl)cc(Cl)c5)C4(Cl)Cl)ccc3Cl)c21 (centres unmarked) [c113]
Test C: Bioassay on Yellow Fever Mosquito, mortality rating [5]: A (80-100)
Test A: Bioassay on BAW, percent mortality rating [6]: A (50-100)
Test B: Bioassay on CL, percent mortality rating [7]: A (50-100)

Cc1cc(N)ccc1NC(=O)c1cc(NC(=O)C2C(c3ccc(Cl)c(Cl)c3)C2(Cl)Cl)ccc1Cl (centres unmarked) [c114]
Test C: Bioassay on Yellow Fever Mosquito, mortality rating [5]: A (80-100)
Test A: Bioassay on BAW, percent mortality rating [6]: A (50-100)
Test B: Bioassay on CL, percent mortality rating [7]: A (50-100)

COCC(=O)N(C)c1ccc(NC(=O)c2cc(NC(=O)C3C(c4cc(Cl)cc(Cl)c4)C3(Cl)Cl)ccc2Cl)cc1 (centres unmarked) [c115]
Test C: mortality of Yellow Fever Mosquito larvae, rating [5]: B (More than 0 - Less than 80)
Test A: percent mortality of Beet Armyworm (BAW) larvae, rating [6]: A (50-100)
Test B: percent mortality of Cabbage Looper (CL) larvae, rating [7]: A (50-100)

CNc1ccc(NC(=O)c2cc(NC(=O)C3C(c4cc(Cl)cc(Cl)c4)C3(Cl)Cl)ccc2Cl)cc1C (centres unmarked) [c116]
Test C: mortality of Yellow Fever Mosquito larvae, rating [5]: A (80-100)
Test A: percent mortality of Beet Armyworm (BAW) larvae, rating [6]: A (50-100)
Test B: percent mortality of Cabbage Looper (CL) larvae, rating [7]: A (50-100)

CC(=O)Nc1ccc(NC(=O)c2cc(NC(=O)C3C(c4ccc(F)c(Cl)c4)C3(Cl)Cl)ccc2Cl)cc1 (centres unmarked) [c117]
Test C: mortality of Yellow Fever Mosquito larvae, rating [5]: A (80-100)
Test A: percent mortality of Beet Armyworm (BAW) larvae, rating [6]: A (50-100)
Test B: percent mortality of Cabbage Looper (CL) larvae, rating [7]: A (50-100)

CC(=O)Nc1ccc(NC(=O)c2cc(NC(=O)[C@H]3[C@H](c4ccc(F)c(Cl)c4)C3(Cl)Cl)cc(Cl)c2C)cc1 [c118]
Test C: mortality of Yellow Fever Mosquito larvae, rating [5]: A (80-100)
Test A: percent mortality of Beet Armyworm (BAW) larvae, rating [6]: A (50-100)
Test B: percent mortality of Cabbage Looper (CL) larvae, rating [7]: A (50-100)

O=C(Nc1ccccc1)c1cc(NC(=O)[C@H]2[C@H](c3ccc(F)c(Cl)c3)C2(Cl)Cl)cc(C(F)(F)F)c1Cl [c121]
Test C: mortality of Yellow Fever Mosquito larvae, rating [5]: A (80-100)
Test A: percent mortality of Beet Armyworm (BAW) larvae, rating [6]: A (50-100)
Test B: percent mortality of Cabbage Looper (CL) larvae, rating [7]: A (50-100)

O=C(Nc1ccccc1)c1c(Cl)ccc(NC(=O)[C@H]2[C@H](c3ccc(F)c(Cl)c3)C2(Cl)Cl)c1Cl [c122]
Test C: mortality of Yellow Fever Mosquito larvae, rating [5]: A (80-100)
Test A: percent mortality of Beet Armyworm (BAW) larvae, rating [6]: A (50-100)
Test B: percent mortality of Cabbage Looper (CL) larvae, rating [7]: A (50-100)

Cc1c(N)ccc(NC(=O)c2cc(NC(=O)C3C(c4ccc(F)c(C(F)(F)F)c4)C3(Cl)Cl)ccc2Cl)c1C (centres unmarked) [c123]
Test C: mortality of Yellow Fever Mosquito larvae, rating [5]: A (80-100)
Test A: percent mortality of Beet Armyworm (BAW) larvae, rating [6]: A (50-100)
Test B: percent mortality of Cabbage Looper (CL) larvae, rating [7]: A (50-100)

Cc1c(NC(=O)c2cc(NC(=O)C3C(c4ccc(F)c(C(F)(F)F)c4)C3(Cl)Cl)ccc2Cl)ccc(NC(=O)C(F)(F)F)c1C (centres unmarked) [c124]
Test C: mortality of Yellow Fever Mosquito larvae, rating [5]: A (80-100)
Test A: percent mortality of Beet Armyworm (BAW) larvae, rating [6]: A (50-100)
Test B: percent mortality of Cabbage Looper (CL) larvae, rating [7]: A (50-100)

Cc1c(NC(=O)c2cc(NC(=O)C3C(c4ccc(F)c(C(F)(F)F)c4)C3(Cl)Cl)ccc2Cl)cccc1NC(=O)C(F)(F)F (centres unmarked) [c125]
Test C: mortality of Yellow Fever Mosquito larvae, rating [5]: A (80-100)
Test A: percent mortality of Beet Armyworm (BAW) larvae, rating [6]: A (50-100)
Test B: percent mortality of Cabbage Looper (CL) larvae, rating [7]: A (50-100)
